Among the data in ChEMBL document CHEMBL2424615, “Design, synthesis, and characterization of novel tetrahydropyran-based bacterial topoisomerase inhibitors with potent anti-gram-positive activity” (J Med Chem, 2013) are MIC, IC50 and inhibition values, retold here.

The term MIC denotes the least concentration at which growth counts as inhibited. A word on the IC50: it is the concentration that gives 50% inhibition. In general, inhibition refers to the drop in the measured response relative to a control, in per cent. A lower inhibition goes with little suppression.

One series concerns Escherichia coli. Put plainly: Antibacterial activity against wild type Escherichia coli ATCC 25922 assessed as growth inhibition by broth microdilution method. It counts as functional. Background: In broth dilution the organism is exposed to a series of concentrations in liquid medium.
The nature of series [1]: Inhibition of wild type Escherichia coli ATCC 25922 DNA topoisomerase-4 subunit 2ParC/2ParE assessed as pBR322 relaxation after 1 hr.
Series [2] relates to Staphylococcus aureus. Nature of the series: Antibacterial activity against wild type Staphylococcus aureus ATCC 29213 assessed as growth inhibition by broth microdilution method. The class given is functional.
A further series deals with Topoisomerase IV (Staphylococcus aureus, UniProt P0C1S7+P0C1U9). Put plainly: Inhibition of wild type Staphylococcus aureus ATCC 29213 topoisomerase-4 subunit 2GrlA/2GrlB assessed as pBR322 relaxation after 1 hr. It counts as protein-complex assay.
Another series relates to Streptococcus pneumoniae. Nature of the series: Antibacterial activity against wild type Streptococcus pneumoniae ATCC 49619 assessed as growth inhibition by broth microdilution method. The class given is functional.
In the next series the test system is Pseudomonas aeruginosa. Put plainly: Antibacterial activity against wild type Pseudomonas aeruginosa ATCC 27853 assessed as growth inhibition by broth microdilution method. The class given is functional.
For another series, the target named is hERG (KCNH2) (Homo sapiens, UniProt Q12809). Nature of the series: Inhibition of human ERG expressed in CHO cells at 10 uM after 3 mins by patch clamp assay relative to control. The class given is cell-based. The note with it: CHO cells that express human ERG. For orientation: The patch-clamp technique gives a direct electrical read-out from membranes.
In series [3] the test system is Staphylococcus aureus. Put plainly: Antibacterial activity against NXL-101-resistant Staphylococcus aureus A-234 harboring DNA gyrase subunit A D83N mutant assessed as growth inhibition by broth microdilution method. The class given is functional.
The target in a further series is DNA gyrase (Staphylococcus aureus, UniProt P0A0K8+P20831). Put plainly: Inhibition of wild type Staphylococcus aureus DNA gyrase subunit 2GyrA/2GyrB assessed as pBR322 supercoiling after 1 hr. It counts as protein-complex assay.
Series [4] is described as follows: Inhibition of wild type Escherichia coli ATCC 25922 DNA gyrase subunit 2GyrA/2GyrB assessed as pBR322 supercoiling after 1 hr.

A value given as a limit tells only on which side of the number the result lay.

As to `COc1cnc2ccc(F)c([C@@H](O)[C@H](O)[C@@H]3CC[C@@H](NCc4cc5c(cn4)OCCS5)CO3)c2n1`, the minimum inhibitory concentration (MIC) with Escherichia coli was 8 µg/mL; with Staphylococcus aureus [2], at most 0.015 µg/mL; in the series with Streptococcus pneumoniae it was 0.03 µg/mL; with Pseudomonas aeruginosa it was above 8 µg/mL; in the series with Staphylococcus aureus [3], 2 µg/mL. In addition, the IC50 in [1] was determined as 125 nM; at Topoisomerase IV, 8000 nM; at DNA gyrase, 30 nM; in [4], 8000 nM. The same compound displayed an inhibition at 0.05 h, 10 µM on hERG (KCNH2) of 33%.
Turning to `COc1ccc2nccc(/C=C/[C@@H]3CC[C@@H](NCc4ccc5c(n4)NC(=O)CS5)CO3)c2n1`, the MIC was 4 µg/mL with Escherichia coli; 0.125 µg/mL in the series on Staphylococcus aureus [2]; 1 µg/mL in the series with Streptococcus pneumoniae; above 8 µg/mL in the series with Pseudomonas aeruginosa; 4 µg/mL in the series on Staphylococcus aureus [3]. Moreover, the IC50 was determined as 30 nM in series [1], 2000 nM at Topoisomerase IV, 125 nM on DNA gyrase and 500 nM in series [4]. For the same compound, on hERG (KCNH2), the inhibition at 0.05 h, 10 µM was determined as 94%.
`COc1ccc2nccc(/C=C/[C@@H]3CC[C@@H](NCc4cc5c(cn4)OCCO5)CO3)c2n1`: the MIC is above 8 µg/mL in the series on Escherichia coli; 0.25 µg/mL with Staphylococcus aureus [2]; 1 µg/mL in the series on Streptococcus pneumoniae; above 8 µg/mL in the series with Pseudomonas aeruginosa; above 8 µg/mL in the series with Staphylococcus aureus [3]. Besides, the IC50 at Topoisomerase IV is above 8000 nM; at DNA gyrase, 125 nM; in series [4] it was above 8000 nM. The compound also gave an inhibition at 0.05 h, 10 µM against hERG (KCNH2) of 88%.
As to `COc1ccc2nccc(CC[C@@H]3CC[C@@H](NCc4cc5c(cn4)OCCO5)CO3)c2n1`, the MIC is 8 µg/mL with Escherichia coli; 0.06 µg/mL in the series with Staphylococcus aureus [2]; 0.5 µg/mL in the series with Streptococcus pneumoniae; above 8 µg/mL in the series on Pseudomonas aeruginosa; 4 µg/mL in the series on Staphylococcus aureus [3]. Also, the IC50 in series [1] is 125 nM; on Topoisomerase IV, above 8000 nM; on DNA gyrase, below 30 nM; in series [4] it was 8000 nM. This compound showed an inhibition at 0.05 h, 10 µM at hERG (KCNH2) of 82%.
With `COc1ccc2nccc([C@@H](O)[C@H](O)[C@@H]3CC[C@@H](NCc4ccc5c(n4)NC(=O)CS5)CO3)c2n1`, the minimal inhibitory concentration (MIC) is 1 µg/mL in the series with Escherichia coli; 0.03 µg/mL in the series on Staphylococcus aureus [2]; 0.06 µg/mL in the series with Streptococcus pneumoniae; above 8 µg/mL with Pseudomonas aeruginosa; 0.5 µg/mL with Staphylococcus aureus [3]. For the same compound, the IC50 in [1] was 125 nM; at Topoisomerase IV, 500 nM; at DNA gyrase, below 30 nM; in series [4] it was 500 nM. In addition, the inhibition at 0.05 h, 10 µM at hERG (KCNH2) was found to be 36%.
In the case of `COc1ccc2nccc([C@@H](O)[C@H](O)[C@H]3CC[C@H](NCc4ccc5c(n4)NC(=O)CS5)CO3)c2n1`, the minimal inhibitory concentration (MIC) in the series with Escherichia coli was 4 µg/mL; with Staphylococcus aureus [2] it was 0.5 µg/mL; in the series with Streptococcus pneumoniae, 0.5 µg/mL; in the series with Pseudomonas aeruginosa, above 8 µg/mL; in the series on Staphylococcus aureus [3], above 8 µg/mL. Further, the IC50 in series [1] was 125 nM; at Topoisomerase IV, above 8000 nM; on DNA gyrase, 125 nM; in series [4] it was 8000 nM. Further, the inhibition at 0.05 h, 10 µM against hERG (KCNH2) came to 45%.
Turning to `COc1ccc2nccc([C@H](O)[C@@H](O)[C@@H]3CC[C@@H](NCc4ccc5c(n4)NC(=O)CS5)CO3)c2n1`, the MIC in the series with Escherichia coli is above 8 µg/mL; in the series on Staphylococcus aureus [2], 1 µg/mL; with Streptococcus pneumoniae, 1 µg/mL; in the series with Pseudomonas aeruginosa, above 8 µg/mL; in the series with Staphylococcus aureus [3] it was above 8 µg/mL. The IC50 in series [1] is 125 nM; at Topoisomerase IV it was above 8000 nM; at DNA gyrase it was 500 nM; in [4] it was 8000 nM. Besides, the inhibition at 0.05 h, 10 µM at hERG (KCNH2) was 93%.
For the compound `COc1ccc2nccc([C@H](O)[C@@H](O)[C@H]3CC[C@H](NCc4ccc5c(n4)NC(=O)CS5)CO3)c2n1`, the minimum inhibitory concentration (MIC) in the series with Escherichia coli was 1 µg/mL; in the series on Staphylococcus aureus [2] it was 0.03 µg/mL; in the series on Streptococcus pneumoniae, 0.03 µg/mL; in the series with Pseudomonas aeruginosa, above 8 µg/mL; with Staphylococcus aureus [3], 0.5 µg/mL. Further, the IC50 in series [1] worked out at 125 nM; at Topoisomerase IV it was 8000 nM; on DNA gyrase, 30 nM; in series [4] it was 500 nM. This compound also yielded an inhibition at 0.05 h, 10 µM on hERG (KCNH2) of 70%.
Take `COc1ccc2cccc([C@@H](O)[C@H](O)[C@@H]3CC[C@@H](NCc4ccc5c(n4)NC(=O)CS5)CO3)c2n1`: the minimal inhibitory concentration (MIC) in the series on Escherichia coli was 2 µg/mL; in the series on Staphylococcus aureus [2], 0.03 µg/mL; in the series with Streptococcus pneumoniae, 0.06 µg/mL; in the series on Pseudomonas aeruginosa, above 8 µg/mL; with Staphylococcus aureus [3], 0.25 µg/mL. The IC50 in series [1] was 125 nM; at Topoisomerase IV, 500 nM; on DNA gyrase it was 30 nM; in series [4], 125 nM. This compound yielded an inhibition at 0.05 h, 10 µM on hERG (KCNH2) of 72%.
In the case of `COc1cnc2ccc(F)c([C@@H](O)[C@H](O)[C@@H]3CC[C@@H](NCc4ccc5c(n4)NC(=O)CS5)CO3)c2n1`, the MIC is 4 µg/mL in the series on Escherichia coli; 0.06 µg/mL with Staphylococcus aureus [2]; 0.5 µg/mL in the series on Streptococcus pneumoniae; above 8 µg/mL in the series with Pseudomonas aeruginosa; 1 µg/mL in the series on Staphylococcus aureus [3]. The half-inhibitory concentration (IC50) in series [1] amounted to 125 nM; on Topoisomerase IV, 2000 nM; on DNA gyrase, 30 nM; in series [4], 500 nM. The inhibition at 0.05 h, 10 µM against hERG (KCNH2) was found to be 44%.
As to `COc1ccc2nccc(OC[C@@H]3CC[C@@H](NCc4ccc5c(n4)NC(=O)CS5)CO3)c2n1`, the MIC in the series on Escherichia coli was 4 µg/mL; in the series with Staphylococcus aureus [2] it was 0.5 µg/mL; in the series with Streptococcus pneumoniae, 0.25 µg/mL; in the series with Pseudomonas aeruginosa it was above 8 µg/mL; in the series on Staphylococcus aureus [3], 4 µg/mL. The IC50 at Topoisomerase IV worked out at 8000 nM; at DNA gyrase, 125 nM; in series [4], 2000 nM. The same compound came in with an inhibition at 0.05 h, 10 µM against hERG (KCNH2) of 70%.
Take `COc1ccc2nccc(OC[C@@H]3CC[C@@H](NCc4cc5c(cn4)OCCO5)CO3)c2n1`: the MIC is above 8 µg/mL in the series with Escherichia coli; 2 µg/mL in the series on Staphylococcus aureus [2]; 4 µg/mL in the series on Streptococcus pneumoniae; above 8 µg/mL with Pseudomonas aeruginosa; above 8 µg/mL with Staphylococcus aureus [3]. For the same compound, the IC50 on Topoisomerase IV was above 8000 nM; at DNA gyrase, 500 nM; in series [4] it was above 8000 nM. On hERG (KCNH2), this compound registered an inhibition at 0.05 h, 10 µM of 19%.
Turning to `COc1ccc2nccc(NC(=O)[C@@H]3CC[C@@H](NCc4ccc5c(n4)NC(=O)CS5)CO3)c2n1`, the minimal inhibitory concentration (MIC) with Escherichia coli was above 8 µg/mL; with Staphylococcus aureus [2], 0.25 µg/mL; in the series on Streptococcus pneumoniae it was 0.5 µg/mL; in the series on Pseudomonas aeruginosa it was above 8 µg/mL; in the series with Staphylococcus aureus [3], above 8 µg/mL. Moreover, the IC50 was determined as 2000 nM on Topoisomerase IV, 125 nM at DNA gyrase and 500 nM in [4]. This compound showed an inhibition at 0.05 h, 10 µM at hERG (KCNH2) of 99%.
As to `COc1ccc2nccc(NC(=O)[C@@H]3CC[C@@H](NCc4cc5c(cn4)OCCO5)CO3)c2n1`, the MIC with Escherichia coli was above 8 µg/mL; in the series with Staphylococcus aureus [2], 0.125 µg/mL; in the series with Streptococcus pneumoniae, 0.25 µg/mL; with Pseudomonas aeruginosa, above 8 µg/mL; in the series with Staphylococcus aureus [3] it was above 8 µg/mL. Besides, the IC50 on Topoisomerase IV was above 8000 nM; at DNA gyrase, 125 nM; in series [4] it was above 8000 nM. For the same compound, the inhibition at 0.05 h, 10 µM against hERG (KCNH2) came out at 71%.
Turning to `COc1ccc2nccc(C(O)C[C@@H]3CC[C@@H](NCc4cc5c(cn4)OCCO5)CO3)c2n1` (mixture of isomers), the MIC with Escherichia coli is above 8 µg/mL; in the series with Staphylococcus aureus [2], 0.03 µg/mL; in the series with Streptococcus pneumoniae it was 0.125 µg/mL; in the series with Pseudomonas aeruginosa it was above 8 µg/mL; in the series with Staphylococcus aureus [3] it was above 8 µg/mL. Also, the IC50 at Topoisomerase IV was above 8000 nM; at DNA gyrase, 125 nM; in series [4], above 8000 nM. This compound gave an inhibition at 0.05 h, 10 µM against hERG (KCNH2) of 66%.
